Experimental data published in patent publication US20260216174A1, “TREATMENT OF ER+ BREAST CANCER COMPRISING HOMOLOGOUS RECOMBINATION DEFICIENCY USING PARG INHIBITOR” (IDEAYA BIOSCIENCES, INC., priority 2023, published 2026).

Assays:
HBCx-34 tumor = assay: Patient-derived xenograft (PDX) study with HBCx-34; assay type: in vivo, Athymic Nude-Foxn1^nu mice; conditions: HBCx-34 PDX
Experimental: Female Athymic Nude-Foxn1^nu mice with an established growing HBCx-34 tumor between 108 and 288 mm^3 were randomized into 4 treatment groups of 10 mice each, according to the groups listed in Table 7A, tumor-bearing mice receive estrogen diluted in drinking water (β-estradiol, 8.5 mg/l), from the date of tumor implant to the end of the study. In Table 7A, the abbreviation “p.o.” refers to oral administration, the abbreviation “QD” refers to administration once a day, and the abbreviation “BID” refers to administration twice a day.
Tumors were measured and mice were weighed twice per week during the experimental period. The tumor volume (mm^3) was estimated using the formula: tumor volume (TV)=a×b2/2, where “a” and “b” were the long and the short diameter of a tumor, respectively. The TVs were used to calculate tumor growth inhibition (TGI, an indicator of antitumor activity) using the formula TGI %: (1−{T/T0/Ct/C0}/1−{C0/Ct})×100 where Tt=median tumor volume of treated at time t, T0=median tumor volume of treated at time 0, Ct=median tumor volume of control at time t and C0=median tumor volume of control at time 0. […] Tumor regression represents tumor volume less than the initial tumor volume on DO.
Female Athymic Nude-Foxn1^nu mice with an established growing HBCx-34 tumor between 108 and 288 mm^3 were randomized into 2 treatment groups of 8 mice each, according to the groups listed in Table 8A, tumor-bearing mice receive estrogen diluted in drinking water (β-estradiol, 8.5 mg/l), from the date of tumor implant to the end of the study. In Table 8A, the abbreviation “p.o.” refers to oral administration, the abbreviation “QD” refers to administration once a day.
Tumors were measured and mice were weighed twice per week during the experimental period. The tumor volume (mm^3) was estimated using the formula: tumor volume (TV)=a×b2/2, where “a” and “b” were the long and the short diameter of a tumor, respectively. The TVs were used to calculate tumor growth inhibition (TGI, an indicator of antitumor activity) using the formula TGI %: (1−{T/T0/Ct/C0}/1−{C0/Ct})×100 where Tt=median tumor volume of treated at time t, T0=median tumor volume of treated at time 0, Ct=median tumor volume of control at time t and C0=median tumor volume of control at time 0. […] Tumor regression represents tumor volume less than the initial tumor volume at DO.

HBCx-22 tumor = assay: Patient-derived xenograft (PDX) study with HBCx-22; assay type: in vivo, Athymic Nude-Foxn1^nu mice; conditions: HBCx-22 PDX; for Regressions (%) / TGI (%) D42: Day 42
Experimental: Female Athymic Nude-Foxn1^nu mice with an established growing HBCx-22 tumor between 108 and 288 mm^3 were randomized into 4 treatment groups of 10 mice each, according to the groups listed in Table 5A, tumor-bearing mice receive estrogen diluted in drinking water (β-estradiol, 8.5 mg/l), from the date of tumor implant to the end of the study. In Table 5A, the abbreviation “p.o.” refers to oral administration, the abbreviation “QD” refers to administration once a day, and the abbreviation “BID” refers to administration twice a day.
Tumors were measured and mice were weighed twice per week during the experimental period. The tumor volume (mm^3) was estimated using the formula: tumor volume (TV)=a×b2/2, where “a” and “b” were the long and the short diameter of a tumor, respectively. The TVs were used to calculate tumor growth inhibition (TGI, an indicator of antitumor activity) using the formula TGI %: (1−{T/T0/Ct/C0}/1−{C0/Ct})×100 where Tt=median tumor volume of treated at time t, T0=median tumor volume of treated at time 0, Ct=median tumor volume of control at time t and C0=median tumor volume of control at time 0. […] Tumor regression represents tumor volume less than the initial tumor volume on D0.
Female Athymic Nude-Foxn1^nu mice with an established growing HBCx-22 tumor between 108 and 288 mm^3 were randomized into 5 treatment groups of 8 mice each, according to the groups listed in Table 6A, tumor-bearing mice receive estrogen diluted in drinking water (β-estradiol, 8.5 mg/l), from the date of tumor implant to the end of the study. In Table 6A, the abbreviation “p.o.” refers to oral administration, the abbreviation “QD” refers to administration once a day, and the abbreviation “BID” refers to administration twice a day.
Tumors were measured and mice were weighed twice per week during the experimental period. The tumor volume (mm^3) was estimated using the formula: tumor volume (TV)=a×b2/2, where “a” and “b” were the long and the short diameter of a tumor, respectively. The TVs were used to calculate tumor growth inhibition (TGI, an indicator of antitumor activity) using the formula TGI %: (1−{T/T0/Ct/C0}/1−{C0/Ct})×100 where Tt=median tumor volume of treated at time t, T0=median tumor volume of treated at time 0, Ct=median tumor volume of control at time t and C0=median tumor volume of control at time 0. […] Robust and statistically significant tumor growth inhibition was observed starting at a dose of 30 mpk with 4/8 as shown in Table 6B. Tumor regression represents tumor volume less than the initial tumor volume at DO.

[1] = 100 mg/kg twice daily (200 mg/kg/day)
[2] = Compound A study, 30 mg/kg QD p.o.
[3] = Compound A study, 100 mg/kg QD p.o.

CC(C)C(=O)N1CCN(c2cc(S(=O)(=O)NC3(C#N)CC3)cc3c2cnn3-c2nnc(C(F)F)s2)C[C@H]1C [Compound B]
Regressions (%) (HBCx-34 tumor; 30 mg/kg QD p.o., Day 35): 10% | TGI (%) D35 (HBCx-34 tumor; 30 mg/kg QD p.o., Day 35): 77% | partial regression (mice) (HBCx-34 tumor; 30 mg/kg once daily): 1/10 | tumor stabilization (HBCx-34 tumor; 30 mg/kg once daily): tumor stabilization for all mice | TGI (%) D35 (HBCx-34 tumor; 100 mg/kg BID p.o. (200 mg/kg/day), Day 35): 106% | Regressions (%) (HBCx-34 tumor; 100 mg/kg BID p.o., Day 35): 80% | Regressions (%) (HBCx-34 tumor; 100 mg/kg QD p.o., Day 35): 80% | TGI (%) D35 (HBCx-34 tumor; 100 mg/kg QD p.o., Day 35): 103% | partial tumor regression (mice) (HBCx-34 tumor; 100 mg/kg once daily): 8/10 | partial tumor regression (mice) (HBCx-34 tumor; [1]): 8/10 | Regressions (%) (HBCx-22 tumor; 30 mg/kg QD p.o.): 10% | TGI (%) D42 (HBCx-22 tumor; 30 mg/kg QD p.o.): 58.6% | partial regressions (mice) (HBCx-22 tumor; 30 mg/kg once daily): 1/10 | tumor stabilization (HBCx-22 tumor; 30 mg/kg once daily): tumor stabilization for all mice | TGI (%) D42 (HBCx-22 tumor; 100 mg/kg BID p.o. (200 mg/kg/day)): 110.4% | Regressions (%) (HBCx-22 tumor; 100 mg/kg BID p.o.): 60% | Regressions (%) (HBCx-22 tumor; 100 mg/kg QD p.o.): 30% | TGI (%) D42 (HBCx-22 tumor; 100 mg/kg QD p.o.): 97.3% | partial tumor regression (mice) (HBCx-22 tumor; 100 mg/kg once daily): 3/10 | partial tumor regression (mice) (HBCx-22 tumor; [1]): 6/10

C[C@H]1CN(c2cc(S(=O)(=O)NC3(C)CC3)cc3c2cnn3-c2nnc(C(F)F)s2)C[C@H](C)N1 [Compound A, 1-(5-(difluoromethyl)-1,3,4-thiadiazol-2-yl)-4-((3S,5S)-3,5-dimethylpiperazin-1-yl)-N-(1-methylcyclopropyl)-1H-indazole-6-sulfonamide]
Regressions (%) (HBCx-34 tumor; 100 mg/kg QD p.o., Day 45): 100% | TGI (%) D45 (HBCx-34 tumor; 100 mg/kg QD p.o., Day 45): 110% | partial regression (mice) (HBCx-34 tumor; Compound A study, 100 mg/kg): all mice achieving partial regression | Regressions (%) (HBCx-22 tumor; 3 mg/kg QD p.o.): 0% | TGI (%) D42 (HBCx-22 tumor; 3 mg/kg QD p.o.): 0.1% | Regressions (%) (HBCx-22 tumor; 10 mg/kg QD p.o.): 0% | TGI (%) D42 (HBCx-22 tumor; 10 mg/kg QD p.o.): 31.8% | Regressions (%) (HBCx-22 tumor; [2]): 50% | TGI (%) D42 (HBCx-22 tumor; [2]): 83.4% | Regressions (%) (HBCx-22 tumor; [3]): 62% | TGI (%) D42 (HBCx-22 tumor; [3]): 108.5% | tumor regression (mice) (HBCx-22 tumor; Compound A study, 30 mpk): 4/8
